# Assay results from patent US20090202439A1, “Methods for treatment of angiogenesis” (The Johns Hopkins University, priority 2004, published 2009).
# Where two headings read alike, the source gives them in different places.
# Legend:
# PECAM-1 [1] = assay: PECAM-1 protein expression by Western immunoblot in HUVECs; assay type: cell-based, human; conditions: for bypass of inhibitory effect of D-PDMP on VEGF induced PECAM-1 protein expression: HUVECs treated with D-PDMP, then lipid; for PECAM-1 expression induced by lipid: 2.5 μM for 4 hrs; for VEGF/LacCer induced PECAM-1: HUVECs pre-treated with NAC, DPI or PDTC; for reversal of inhibitory effect of PPMP on VEGF induced PECAM-1 expression: PPMP 90 min, then lipid 2.5 μM 4 hrs, GlcCer to a lesser extent than LacCer
# Description: Cell Culture—Human umbilical vein endothelial cells (HUVEC) and endothelial cells growth medium EGM™ were purchased from Cambrex, (Walkersville, Md.) and were cultured in EGM™ medium supplemented with 10% fetal bovine serum (FBS).
# Western Immunoblot Analysis—[…] of protein was resolved by 10% SDS-PAGE and then transferred to nitrocellulose membrane. The membrane-bound primary antibodies were visualized by horseradish peroxidase-conjugated secondary antibody using chemiluminescence kit. The films were then densitometrically scanned using Molecular Dynamics Image Scanner and analyzed using Image Quant software.
# HUVECs = assay: In vitro angiogenesis/tube formation assay in HUVECs; assay type: cell-based, human; conditions: for bypass of inhibitory effect of D-PDMP on VEGF induced angiogenesis: HUVECs treated with D-PDMP, then lipid; for reversal of inhibitory effect of PPMP on VEGF induced angiogenesis: then lipid 2.5 μM 4 hrs, GlcCer to a lesser extent than LacCer
# Description: (§1) In vitro angiogenesis/tube formation assay—In vitro angiogenesis assay was performed using a commercially available kit from Chemicon Inc (Temecula, Calif.).
# PECAM-1 [2] = assay: PECAM-1 mRNA expression by real-time RT-PCR in HUVECs; assay type: cell-based, human
# GbOse3Cer = GbOse3Cer synthesis in HUVECs; assay type: cell-based, human; conditions: cells treated with VEGF, with and without D-PDMP (data not shown)
# HUVEC = assay: Apoptosis in HUVEC; assay type: cell-based, human; conditions: D-PDMP 20 μM up to 4-6 hrs, HUVEC (data not shown)
# GlcCer = conditions: HUVECs
# LacCer synthase = conditions: previously shown; cited from earlier work
# NF-κB = assay: Cytosolic NF-κB expression in HUVECs; assay type: cell-based, human; conditions: HUVECs pre-treated with NAC, DPI or PDTC
# GalT-V [3] = assay: GalT-V protein expression by immunoblot in siRNA transfected HUVECs; assay type: cell-based, human; conditions: siRNA duplex 100 nM, 48 hrs after transfection
# Description: Next, 48 hrs after transfection cells were harvested lysed, and GalT-V protein levels were analyzed by immunoblot probed with GalT-V antibody or b-actin, as shown in the figure. GalT-V expression was expressed as % control, when normalized with b-actin expression and the relative quantification values are shown below the immunoblot. (C) HUVECs were transfected with either scrambled GalT-V siRNA (100 nM) or GalT-V siRNA (100 nM). […] The data shown is representative of two identical experiments yielding similar result. […] HUVECs were transfected with siRNA duplexes using Oligofectamine (Invitrogen), following protocol supplied by the manufacturer. Western Immunoblot Analysis-25 g of protein was resolved by 10% SDS-PAGE and then transferred to nitrocellulose membrane. The membrane-bound primary antibodies were visualized by horseradish peroxidase-conjugated secondary antibody using chemiluminescence kit. The films were then densitometrically scanned using Molecular Dynamics Image Scanner and analyzed using Image Quant software.
# GalT-V [4] = assay: LacCer synthase (GalT-V) enzyme activity in siRNA transfected HUVECs; assay type: cell-based, human; conditions: siRNA 100 nM, compared with scrambled siRNA treated cells
# Description: (C) HUVECs were transfected with either scrambled GalT-V siRNA (100 nM) or GalT-V siRNA (100 nM). 48 hrs post transfection, cells were lysed and Cer synthase enzyme activity was performed as described in “Materials and Methods”. […] HUVECs were transfected with siRNA duplexes using Oligofectamine (Invitrogen), following protocol supplied by the manufacturer.
# REN (WT) cells = assay: In vitro angiogenesis assay in REN (WT) cells lacking PECAM-1; assay type: cell-based, human; conditions: VEGF 25 ng/ml or LacCer 2.5 μM 4 hrs, compared with 2% FBS treated cells
# Description: (§2) REN (WT) [A] were either stimulated with VEGF (25 ng/ml) [B]; LacCer (2.5 μM) [C] or REN (rhPECAM-1) [D] with VEGF (25 ng/ml) (E) or LacCer [F] for 4 hrs and then in vitro angiogenesis assays were performed as described earlier. Results shown here are from set of experiments performed in triplicate yielding similar results.
# (§3) Cell Culture—Human umbilical vein endothelial cells (HUVEC) and endothelial cells growth medium EGM™ were purchased from Cambrex, (Walkersville, Md.) and were cultured in EGM™ medium supplemented with 10% fetal bovine serum (FBS). Human mesoendothelioma cell line [(REN— wild type (WT)] which lacks endogenous PECAM-1 expression and REN (mt-rhPECAM-1) expressing human PECAM-1 was kindly provided by Dr. Steven Albelda, University of Pennsylvania Medical Center, USA. REN-WT was grown in RPMI 1640 supplemented with 101/&FBS. REN (mtrhPECAM-1) was cultured in the same medium with G418 (0.5 g/L Gibco).
# as §1
# REN (mt-rhPECAM-1) = assay: In vitro angiogenesis assay in REN cells transfected with human PECAM-1 gene; assay type: cell-based; conditions: REN transfected with human PECAM-1 gene, VEGF 25 ng/ml or LacCer 4 hrs, compared with control
# Description: as §2, §3, §1
# [5] = D-PDMP 20 μM for 90 min, then VEGF 25 ng/ml
# [6] = CC 5.0 μM, GÖ 6850 and 6976 50 nM, BPB 10 μM, MAFP 3.0 μM, compared with vehicle (DMSO)
# [7] = cells treated with increasing concentrations of L-PDMP
# [8] = HUVECs pretreated with PPMP 20 μM
# [9] = VEGF 25 ng/ml 4 hrs, compared to scrambled siRNA transfected cells
# [10] = HUVECs, VEGF 30 ng/ml for 4 hrs
molecule,measurement,setting,value
CCCCCCCCCCCCC/C=C/[C@@H](O)[C@H](CO)NC(C)=O [C2ceramide],bypass of inhibitory effect of D-PDMP on VEGF induced PECAM-1 protein expression,PECAM-1 [1],failed to bypass
same,PECAM-1 expression induced by lipid,PECAM-1 [1]; HUVECs,did not induce
same,bypass of inhibitory effect of D-PDMP on VEGF induced angiogenesis,HUVECs,failed to bypass
"CCCCCCCCCC(=O)N[C@H](CN1CCOCC1)[C@H](O)c1ccccc1 [D-PDMP, (1R,2R)-1-phenyl-2-decanoylamino-3-morpholino-1-propanol]",VEGF induced PECAM-1 mRNA expression,PECAM-1 [2]; [5],abrogated
same,VEGF induced PECAM-1 protein expression,PECAM-1 [1]; [5],abrogated
same,VEGF-induced PECAM-1 expression,"PECAM-1 [1]; HUVECs pre-incubated with D-PDMP 10-30 μM, then VEGF 25 ng/ml 4 hrs",concentration-dependent inhibition
same,level of GbOse3Cer synthesis,GbOse3Cer,similar
same,VEGF induced angiogenesis,"HUVECs; HUVECs, D-PDMP",significantly mitigated
same,apoptosis,HUVEC,did not induce apoptosis
same,VEGF induced LacCer biosynthesis,"LacCer; HUVECs pretreated with 20 μM D-PDMP, then VEGF 25 ng/ml",mitigated
same,VEGF induced GlcCer synthesis,"GlcCer; D-PDMP 20 μM pretreatment, as early as 10 min",inhibited
same,action on LacCer synthase,LacCer synthase,inhibitor of purified LacCer synthase
"c1ccc2c(c1)[I+]c1ccccc1-2 [DPI, diphenylene iodonium]",VEGF/LacCer induced PECAM-1,PECAM-1 [1],significantly blunted
same,VEGF/LacCer induced cytosolic NF-κB expression,NF-κB,significantly blunted
CN(C)CCCn1cc(C2=C(c3c[nH]c4ccccc34)C(=O)NC2=O)c2ccccc21 [GÖ 6850],VEGF/LacCer induced PECAM-1 expression,PECAM-1 [1]; [6],abrogated
same,VEGF/LacCer induced tube formation,HUVECs; [6],abrogated
Cn1c2ccccc2c2c3c(c4c5ccccc5n(CCC#N)c4c21)CNC3=O [GÖ 6976],VEGF/LacCer induced PECAM-1 expression,PECAM-1 [1]; [6],abrogated
same,VEGF/LacCer induced tube formation,HUVECs; [6],abrogated
CCCCCCCCCC(=O)N[C@@H](CN1CCOCC1)[C@@H](O)c1ccccc1 [L-PDMP],PECAM-1 expression,PECAM-1 [1]; [7],significantly induced
same,angiogenesis,HUVECs; [7],significantly induced
same,action on LacCer synthase,LacCer synthase,potent activator
"CC(=O)N[C@@H](CS)C(=O)O [NAC, N-Acetyl-L-cysteine]",VEGF/LacCer induced PECAM-1,PECAM-1 [1],significantly blunted
"S=C(S)N1CCCC1 [PDTC, 1-pyrrolidinecarbodithioicacid]",VEGF/LacCer induced PECAM-1,PECAM-1 [1],significantly blunted
same,VEGF/LacCer induced cytosolic NF-κB expression,NF-κB,significantly blunted
CCCCCCCCCCCCCCCC(=O)NC(CN1CCOCC1)C(O)c1ccccc1 (centres unmarked) [PPMP],VEGF induced PECAM-1 expression,PECAM-1 [1]; [8],mitigation
same,VEGF induced angiogenesis,HUVECs; [8],mitigation
CC(C)c1cc(/C=C(\C#N)C(=O)NCCCc2ccccc2)cc(C(C)C)c1O [SU 1498],LacCer induced tube formation/angiogenesis,"HUVECs; HUVECs pre-treated with SU 1498 1 hr, then LacCer",not LacCer
same,VEGF induced tube formation/angiogenesis,"HUVECs; HUVECs pre-treated with SU 1498 1 hr, then VEGF",failed to induce tube formation/angiogenesis
"GalT-V specific siRNA duplex: siRNA for human GalT-V: 5′-CGG AGU GAG UGG CUU AAC A dTdT-3′ (sense), 5′-UGU UAA GCC ACU CAC UCC G dTdT-3′ (antisense) (sense CGGAGUGAGUGGCUUAACATT; antisense UGUUAAGCCACUCACUCCGTT; chemistry not fully specified)",PECAM-1 expression in GalT-V silenced cells treated with VEGF,PECAM-1 [1]; [9],No change
same,angiogenesis in GalT-V silenced cells treated with VEGF,HUVECs; [9],blunted
same,decrease of GalT-V protein expression,GalT-V [3],~70%
same,decrease of GalT-V enzyme activity,GalT-V [4],~62%
Lactosylceramide [LacCer],bypass of D-PDMP inhibition of PECAM-1 mRNA expression,"PECAM-1 [2]; D-PDMP 20 μM 90 min, then VEGF 25 ng/ml and LacCer 2.5 μM 4 hrs",bypassed
same,bypass of inhibitory effect of D-PDMP on VEGF induced PECAM-1 protein expression,PECAM-1 [1],bypassed
same,PECAM-1 expression induced by lipid,PECAM-1 [1]; HUVECs,significantly induced
same,reversal of inhibitory effect of PPMP on VEGF induced PECAM-1 expression,PECAM-1 [1]; HUVECs,reversed
same,reversal of inhibitory effect of PPMP on VEGF induced angiogenesis,HUVECs; HUVECs,reversed
same,induction of angiogenesis,"HUVECs; HUVECs, independent of presence/absence of D-PDMP and VEGF",significantly induced
same,tube formation,REN (WT) cells,failed to form tube-like structures
same,tube formation,REN (mt-rhPECAM-1),induced tube formation
Vascular endothelial growth factor [VEGF],time of maximal PECAM-1 mRNA expression,"PECAM-1 [2]; HUVECs, VEGF 25 ng/ml, different time points",4 to 5 h
same,PECAM-1 mRNA expression,PECAM-1 [2]; [10],Maximal
same,PECAM-1 mRNA expression,"PECAM-1 [2]; HUVECs, VEGF 5-30 ng/ml",dose-dependent increase
same,time of maximal PECAM-1 protein expression,"PECAM-1 [1]; HUVECs, VEGF 25 ng/ml, various time intervals",4 h
same,PECAM-1 protein expression,PECAM-1 [1]; [10],maximal
same,tube formation,REN (WT) cells,failed to form tube-like structures
same,tube formation,REN (mt-rhPECAM-1),induced tube formation
same,de novo biosynthesis of LacCer,"LacCer; HUVECs, VEGF 25 ng/ml, time-dependent, from 10 min",significantly stimulated
same,biosynthesis of GlcCer,GlcCer; VEGF 25 ng/ml,stimulated
bromophenacyl bromide [BPB],VEGF/LacCer induced PECAM-1 expression,PECAM-1 [1],abrogated
same,VEGF/LacCer induced tube formation,HUVECs,abrogated
digalactosylceramide [DGDG],bypass of inhibitory effect of D-PDMP on VEGF induced PECAM-1 protein expression,PECAM-1 [1],failed to bypass
same,PECAM-1 expression induced by lipid,PECAM-1 [1]; HUVECs,did not induce
same,bypass of inhibitory effect of D-PDMP on VEGF induced angiogenesis,HUVECs,failed to bypass
glucosylceramide [GlcCer],bypass of inhibitory effect of D-PDMP on VEGF induced PECAM-1 protein expression,PECAM-1 [1],failed to bypass
same,PECAM-1 expression induced by lipid,PECAM-1 [1]; HUVECs,did not induce
same,reversal of inhibitory effect of PPMP on VEGF induced PECAM-1 expression,PECAM-1 [1]; HUVECs,also reversed
same,bypass of inhibitory effect of D-PDMP on VEGF induced angiogenesis,HUVECs,failed to bypass
same,reversal of inhibitory effect of PPMP on VEGF induced angiogenesis,HUVECs; HUVECs,also reversed
